These results are taken from patent US20080182895A1 (priority 2006, published 2008).

Several values for one entry are separate records, joined by “and”; a condition that tells them apart may be missing. Equal entries are not always repeated. Where two headings read alike, the source gives them in different places.

Experiment [1] has as its target T1, HCV NS5B enzyme BB7-C316N (Hepatitis C virus genotype 1b, UniProt Q9WMX2, C2735N).
T1 construct: To prepare expression plasmid NS5B-BB7dCT21-His(C316N); His (C); made in house; host or cells: E. coli
Description: NS5B polymerase biochemical assay. The method, then: (§1) All NS5B enzymes were expressed and purified according to the protocol for NS5B-BB7dCT21-His as described (Howe et al. (2004) Antimicrobial Agents Chem. 48:4813-21). Briefly, expression plasmids were transformed into E. coli cells and NS5B expression was initiated by the addition of isopropyl-beta-D-thiogalactopyranoside (IPTG). After 4 to 6 hours of incubation the cells were harvested and lysed. NS5B enzymes were purified by chromatography using a nickel affinity column (Talon, B D Biosciences, Clontech Laboratories, Inc., Mountain View, Calif.)) followed by a cation exchange column (Poros H S, Applied Biosystems, Foster City, Calif.).

In experiment [2] the target is T2, HCV NS5B enzyme BB7-C316Y (Hepatitis C virus genotype 1b, UniProt Q9WMX2, C2735Y).
T2 construct: To prepare expression plasmid NS5B-BB7dCT21-His(C316Y); His (C); made in house; host or cells: E. coli
T2 sequence (Q9WMX2 2420-2989 C2735Y): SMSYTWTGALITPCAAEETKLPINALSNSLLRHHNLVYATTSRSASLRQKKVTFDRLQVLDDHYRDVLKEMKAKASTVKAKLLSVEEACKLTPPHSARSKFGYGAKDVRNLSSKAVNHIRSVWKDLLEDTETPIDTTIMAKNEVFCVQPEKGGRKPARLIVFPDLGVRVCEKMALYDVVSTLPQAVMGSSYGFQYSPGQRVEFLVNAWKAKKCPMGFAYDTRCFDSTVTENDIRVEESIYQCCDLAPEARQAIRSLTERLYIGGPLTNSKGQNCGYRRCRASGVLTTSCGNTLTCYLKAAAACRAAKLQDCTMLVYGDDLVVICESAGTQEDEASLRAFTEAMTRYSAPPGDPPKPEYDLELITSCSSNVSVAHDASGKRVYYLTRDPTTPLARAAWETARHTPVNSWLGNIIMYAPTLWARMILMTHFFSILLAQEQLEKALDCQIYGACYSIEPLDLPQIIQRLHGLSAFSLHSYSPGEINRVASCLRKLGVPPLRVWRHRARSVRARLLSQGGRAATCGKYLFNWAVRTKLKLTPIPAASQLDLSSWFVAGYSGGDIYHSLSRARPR
Kind of experiment: NS5B polymerase biochemical assay. The protocol: as §1

In experiment [3] the test system is HCV NS5B enzyme BB7-M414V. Description: NS5B polymerase biochemical assay. To be noted: BB7-M414V vs BB7 (C316). Also on record: species or system Hepatitis C virus genotype 1b. The method, then: as §1
The subject of experiment [4] is HCV NS5B enzyme BB7-M414I. Description: NS5B polymerase biochemical assay. Also on record: species or system Hepatitis C virus genotype 1b. Particulars: BB7-M414I vs BB7 (C316). The protocol:
as §1

Another experiment concerns the target T3, HCV NS5B enzyme BK-N316C (Hepatitis C virus genotype 1b, UniProt P26663, N2735C).
T3 construct: the NS5B enzyme derived from the genotype 1b BK isolate; His (C); made in house; host or cells: E. coli
Description: NS5B polymerase biochemical assay. The method, then:
as §1

The target in experiment [5] is T4, HCV NS5B enzyme BB7-M414V (Hepatitis C virus genotype 1b, UniProt Q9WMX2, M2833V).
T4 construct: NS5B-BB7dCT21-His(M414T/V/I); His (C); made in house; host or cells: E. coli
T4 sequence (Q9WMX2 2420-2989 M2833V): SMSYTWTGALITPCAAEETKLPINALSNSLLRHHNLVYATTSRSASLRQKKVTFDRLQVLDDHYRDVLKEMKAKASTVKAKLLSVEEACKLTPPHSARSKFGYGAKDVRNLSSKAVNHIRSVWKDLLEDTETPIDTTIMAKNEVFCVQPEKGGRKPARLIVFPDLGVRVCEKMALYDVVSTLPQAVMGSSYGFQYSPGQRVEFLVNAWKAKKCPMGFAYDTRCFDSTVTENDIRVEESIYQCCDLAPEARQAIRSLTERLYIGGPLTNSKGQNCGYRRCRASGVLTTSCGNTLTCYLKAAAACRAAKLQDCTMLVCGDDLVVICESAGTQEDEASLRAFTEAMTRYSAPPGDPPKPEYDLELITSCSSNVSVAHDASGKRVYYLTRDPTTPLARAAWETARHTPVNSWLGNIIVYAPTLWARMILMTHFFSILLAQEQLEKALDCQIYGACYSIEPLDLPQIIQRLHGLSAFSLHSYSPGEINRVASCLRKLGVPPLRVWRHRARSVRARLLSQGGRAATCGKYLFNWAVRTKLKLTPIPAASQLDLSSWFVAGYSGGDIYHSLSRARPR
Description: NS5B polymerase biochemical assay. The protocol:
as §1

Experiment [6] addresses T5, HCV NS5B enzyme BK (N316) (Hepatitis C virus genotype 1b, UniProt P26663).
T5 construct: the NS5B enzyme derived from the genotype 1b BK isolate; His (C); made in house; host or cells: E. coli
Kind of experiment: NS5B polymerase biochemical assay. The method, then: as §1

Experiment [7] concerns the target T6, HCV NS5B enzyme BB7-M414I (Hepatitis C virus genotype 1b, UniProt Q9WMX2, M2833I).
T6 construct: To prepare expression plasmid NS5B-BB7dCT21-His(M414I); His (C); made in house; host or cells: E. coli
Kind of experiment: NS5B polymerase biochemical assay. The protocol: as §1

The test system of experiment [8] is HCV NS5B enzyme BB7-C316N. Kind of experiment: NS5B polymerase biochemical assay. Further details: species or system Hepatitis C virus genotype 1b. Particulars: BB7-C316N vs BB7 (C316). The method, then: as §1
The subject of experiment [9] is HCV NS5B enzyme BB7-C316Y. Description: NS5B polymerase biochemical assay. Further details: species or system Hepatitis C virus genotype 1b. To be noted: BB7-C316Y vs BB7 (C316). The method, then:
as §1

Experiment [10] addresses T7, HCV NS5B enzyme BB7-C316F (Hepatitis C virus genotype 1b, UniProt Q9WMX2, C2735F).
T7 construct: NS5B-BB7dCT21-His(C316F/S/Y/N); His (C); made in house; host or cells: E. coli
Kind of experiment: NS5B polymerase biochemical assay. The protocol: as §1

For experiment [11], the system named is HCV NS5B enzyme BB7-C316F. Kind of experiment: NS5B polymerase biochemical assay. Further details: species or system Hepatitis C virus genotype 1b. Particulars: BB7-C316F vs BB7 (C316). The protocol: as §1
For the next experiment, the system named is 1b, BB7 replicon (WT). Description: Replicon 3-day assay, wild type. Type of experiment: cell-based, Hepatitis C virus. Particulars: for EC50: Hepatitis C virus. The method, then: pBB7-replicon variant DNAs were linearized with Sca I, and in vitro transcription was performed using Ambion's […]® T7 High Yield Transcription kit (Austin, Tex.). Purified RNA transcripts were electroporated into Huh-7 cells in quadruplicates using a Biorad GENE PULSER® Electroporation System (Setting: 270V, 950 μF) (Hercules, Calif.). Stably transfected replicon variant cell lines were initially selected with 0.25 mg/ml G418 and stepped up to 1 mg/ml before further testing. One cell plate was stained with Crystal Violet to visualize the number of colonies and determine the colony formation efficiency. Individual cell clones from each plate were pooled and expanded for drug susceptibility testing.
The contribution of individual amino acid changes on drug resistance was assessed in replicon variants containing single amino acid mutations in NS5B in the background of the genotype 1b, BB7 adaptive replicon (Blight et al. (2000) Science 290:1972-74).
Drug susceptibility of the replicon-containing cells to various compounds was evaluated as described previously (Howe et al. (2004) Antimicrobial Agents Chem. 48:4813-21). Briefly, cells were treated with increasing concentrations of compounds in medium containing 2% FCS and no G418 for three days at 37° C. and 5% CO2. After incubation, total RNA from the replicon-containing cells was isolated. The levels of HCV, glyceraldehyde 3-phosphate dehydrogenase (GAPDH) and ribosomal (rRNA) RNAs were quantified using TAQMAN® (PE Applied Biosystems, Foster City, Calif.) reverse transcriptase PCR reactions. The amounts of HCV, 18S ribosomal, and GAPDH RNAs in each sample were estimated by comparing the number of cycles during the exponential phase of the PCR amplification with those in the corresponding standard curves. HCV RNA standards used for the construction of the standard curve were prepared by extracting the total RNA from the Clone A cells. The RNA sample was sent to National Genetics Institute to quantify HCV RNA. Total RNA extracted from Clone A cells was quantified by O.D.260 measurement and used for construction of the standard curves of rRNA and GAPDH. The concentrations of the compounds that inhibit 50% of the HCV RNA level (EC50) were determined using the MDL® LIFE SCIENCE WORKBENCH® (LSW) Data Analysis software (MDL Information Systems, San Leandro, Calif.) in Microsoft EXCEL®. The amounts of HCV or GAPDH RNAs in the samples were expressed as HCV RNA (copies) or GAPDH (ng), respectively, per μg of total RNA using rRNA as a marker for total RNA measurement.

T3 sequence (P26663 2420-2989 N2735C): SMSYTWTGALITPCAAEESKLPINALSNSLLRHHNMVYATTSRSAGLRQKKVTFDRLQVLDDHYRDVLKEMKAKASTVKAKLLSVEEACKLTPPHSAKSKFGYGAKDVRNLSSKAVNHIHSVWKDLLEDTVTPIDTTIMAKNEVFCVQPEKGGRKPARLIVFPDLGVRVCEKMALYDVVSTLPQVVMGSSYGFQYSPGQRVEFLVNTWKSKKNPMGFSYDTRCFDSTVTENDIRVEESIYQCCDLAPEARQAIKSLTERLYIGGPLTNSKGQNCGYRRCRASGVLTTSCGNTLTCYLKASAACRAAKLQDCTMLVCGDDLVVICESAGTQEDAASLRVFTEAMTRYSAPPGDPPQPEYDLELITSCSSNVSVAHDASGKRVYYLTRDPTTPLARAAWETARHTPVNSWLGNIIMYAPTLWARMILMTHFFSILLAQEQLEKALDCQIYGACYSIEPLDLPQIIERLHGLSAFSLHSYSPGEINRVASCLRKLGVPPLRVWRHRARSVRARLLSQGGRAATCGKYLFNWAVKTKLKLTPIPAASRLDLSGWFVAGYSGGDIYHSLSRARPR
T1 sequence (Q9WMX2 2420-2989 C2735N): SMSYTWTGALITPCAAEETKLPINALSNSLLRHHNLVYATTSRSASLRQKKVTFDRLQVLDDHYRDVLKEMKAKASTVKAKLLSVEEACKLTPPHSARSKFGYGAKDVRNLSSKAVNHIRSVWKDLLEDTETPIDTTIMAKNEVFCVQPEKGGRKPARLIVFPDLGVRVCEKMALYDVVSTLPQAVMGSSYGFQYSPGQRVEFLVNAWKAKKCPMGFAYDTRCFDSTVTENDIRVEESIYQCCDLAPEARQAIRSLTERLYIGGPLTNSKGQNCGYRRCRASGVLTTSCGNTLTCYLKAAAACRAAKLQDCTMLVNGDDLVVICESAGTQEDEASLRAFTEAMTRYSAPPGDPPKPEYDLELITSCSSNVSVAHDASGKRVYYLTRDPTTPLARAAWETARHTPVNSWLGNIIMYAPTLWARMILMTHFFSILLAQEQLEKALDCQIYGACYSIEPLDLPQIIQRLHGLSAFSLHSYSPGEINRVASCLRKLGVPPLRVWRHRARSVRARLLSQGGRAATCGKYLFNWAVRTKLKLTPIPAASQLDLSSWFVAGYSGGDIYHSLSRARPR
T6 sequence (Q9WMX2 2420-2989 M2833I): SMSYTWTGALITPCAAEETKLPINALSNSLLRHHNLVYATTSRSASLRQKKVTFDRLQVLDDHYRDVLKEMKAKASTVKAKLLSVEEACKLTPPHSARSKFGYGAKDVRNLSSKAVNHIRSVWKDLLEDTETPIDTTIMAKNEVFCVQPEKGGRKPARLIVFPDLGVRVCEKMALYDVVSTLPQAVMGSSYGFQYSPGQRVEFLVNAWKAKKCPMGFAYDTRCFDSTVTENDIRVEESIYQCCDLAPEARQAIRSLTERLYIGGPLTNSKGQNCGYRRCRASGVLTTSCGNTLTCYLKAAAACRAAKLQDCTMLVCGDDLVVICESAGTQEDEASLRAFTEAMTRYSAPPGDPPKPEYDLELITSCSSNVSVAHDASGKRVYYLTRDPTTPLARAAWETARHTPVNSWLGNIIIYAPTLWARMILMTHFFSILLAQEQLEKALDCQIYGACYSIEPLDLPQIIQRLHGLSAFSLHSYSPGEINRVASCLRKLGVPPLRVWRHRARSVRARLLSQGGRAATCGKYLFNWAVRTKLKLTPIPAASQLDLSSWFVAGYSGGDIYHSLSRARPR
T7 sequence (Q9WMX2 2420-2989 C2735F): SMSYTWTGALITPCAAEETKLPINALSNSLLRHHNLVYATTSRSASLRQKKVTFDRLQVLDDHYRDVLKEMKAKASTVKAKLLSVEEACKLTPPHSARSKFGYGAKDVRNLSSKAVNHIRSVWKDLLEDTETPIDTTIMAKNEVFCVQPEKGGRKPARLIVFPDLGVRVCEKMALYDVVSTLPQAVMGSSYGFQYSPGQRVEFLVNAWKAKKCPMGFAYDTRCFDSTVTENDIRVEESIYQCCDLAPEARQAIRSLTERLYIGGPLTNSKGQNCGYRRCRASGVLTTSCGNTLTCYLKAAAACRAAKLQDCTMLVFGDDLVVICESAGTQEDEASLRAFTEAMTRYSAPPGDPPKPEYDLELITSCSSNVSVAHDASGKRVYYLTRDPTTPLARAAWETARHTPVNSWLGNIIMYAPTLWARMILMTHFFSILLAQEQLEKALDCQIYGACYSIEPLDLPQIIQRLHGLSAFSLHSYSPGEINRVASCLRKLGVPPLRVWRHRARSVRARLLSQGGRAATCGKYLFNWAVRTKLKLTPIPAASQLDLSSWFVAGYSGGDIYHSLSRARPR
T5 sequence (P26663 2420-2989): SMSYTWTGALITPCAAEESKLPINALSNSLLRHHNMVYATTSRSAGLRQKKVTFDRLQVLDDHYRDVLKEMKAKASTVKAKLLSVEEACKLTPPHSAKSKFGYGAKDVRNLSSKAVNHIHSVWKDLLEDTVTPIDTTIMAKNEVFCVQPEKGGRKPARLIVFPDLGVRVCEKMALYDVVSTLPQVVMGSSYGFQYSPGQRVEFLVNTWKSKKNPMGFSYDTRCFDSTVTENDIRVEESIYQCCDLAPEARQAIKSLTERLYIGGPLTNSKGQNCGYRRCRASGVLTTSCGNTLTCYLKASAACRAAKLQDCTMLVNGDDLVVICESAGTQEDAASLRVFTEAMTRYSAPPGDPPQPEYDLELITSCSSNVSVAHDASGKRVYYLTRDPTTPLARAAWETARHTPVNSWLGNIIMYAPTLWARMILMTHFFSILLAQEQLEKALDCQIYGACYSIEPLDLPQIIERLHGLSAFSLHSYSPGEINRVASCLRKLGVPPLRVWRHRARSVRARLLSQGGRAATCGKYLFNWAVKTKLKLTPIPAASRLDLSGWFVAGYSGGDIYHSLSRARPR

Broadly, the IC50 is the concentration that gives 50% inhibition. For orientation: EC50 means the midpoint of the concentration-response curve. Turning to `CNC(=O)c1c(-c2ccc(F)cc2)oc2cc(N(CCO)S(C)(=O)=O)c(C3CC3)cc12` [HCV-796, 5-cyclopropyl-2-(4-fluorophenyl)-6-[(2-hydroxyethyl)(methylsulfonyl)amino]-N-methyl-1-benzofuran-3-carboxamide], the IC50 in experiment [1] was 81 ± 42 nM; in experiment [2] it was 320 ± 10 nM; against HCV NS5B enzyme BK-N316C it was 31 ± 4 nM; in [5] it was 28 ± 2 nM; in [6] it was 140 ± 50 nM; in [7], 24 ± 6 nM. The compound further came in with an IC50 in [10] of 1510 ± 419 nM. For the same compound, the “Susceptibility Relative to Wild type Enzyme” value was 1.4-fold more in experiment [3]; 1.7-fold more in experiment [4]; 4.5 fold more and 4.5-fold more on HCV NS5B enzyme BK-N316C (BK-N316C vs wild type BK (N316)); 2-fold less in experiment [8]; 8-fold less in experiment [9]; 124-fold less in experiment [11]. The “Viral Load Reduction” value in the experiment with 1b, BB7 replicon (WT) (1b, BB7, 2240 nM HCV-796, 3-day assay) turned out to be 1.9 ± 0.3 log. Moreover, the EC50 with 1b, BB7 replicon (WT) is 8.6 nM; in the experiment on 1b, BB7 replicon (WT) (72 h, 1b, BB7, 3-day assay, read-out: HCV RNA EC50 (nM) ± SD), 3 ± 1 nM.
